The text below walks through data of US11753445B2, “Therapeutic peptides” (COHBAR, INC., priority 2016, dated 2023).

Peptide text beside a SMILES is read from it.

The assay has as its system 3T3-L1 Adipocytes. As to the kind of experiment: Free fatty acid levels in cultured mouse 3T3-L1 adipocytes, isoproterenol stimulated (Example 2). The assay is classed as cell-based. The conditions noted are these: test peptides 25 μM; isoproterenol 1 nM. The procedure, abridged:
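Release of free fatty acids, read at 540 nm, was stimulated with 1 nM isoproterenol for 3 h in mouse 3T3-L1 adipocytes (12–17 days of differentiation). Cells were pre-exposed to 25 μM peptide for 18–20 h plus 1 h, with peptide kept in during stimulation. Values are background-subtracted and normalised to isoproterenol alone.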
In the case of `CC[C@H](C)[C@H](NC(=O)[C@H](Cc1ccc(O)cc1)NC(=O)CNC(=O)[C@H](CCSC)NC(=O)[C@H](CCC(=O)O)NC(=O)[C@H](CCC(N)=O)NC(=O)[C@H](Cc1c[nH]c2ccccc12)NC(=O)[C@H](CCCNC(=N)N)NC(=O)[C@@H](N)CCSC)C(=O)N[C@@H](Cc1ccccc1)C(=O)N[C@H](C)C(=O)N1CCC[C@H]1C(=O)N[C@@H](CCCNC(=N)N)C(=O)N[C@@H](CCCCN)C(=O)N[C@@H](CC(C)C)C(=O)N[C@@H](CCCNC(=N)N)C(=O)O` [compound 146] (HELM PEPTIDE1{M.R.W.Q.E.M.G.Y.I.F.[dA].P.R.K.L.R}$$$$V2.0), the “Free Fatty Acid Levels in 3T3-L1 Adipocytes Expressed as a Percent of Isoproterenol Control: Percent of Control Value” worked out at 55.9%. The result for `CC[C@H](C)[C@H](NC(=O)[C@H](Cc1ccc(O)cc1)NC(=O)CNC(=O)[C@H](CCSC)NC(=O)[C@@H](C)NC(=O)[C@H](CCC(N)=O)NC(=O)[C@H](Cc1c[nH]c2ccccc12)NC(=O)[C@H](CCCNC(=N)N)NC(=O)[C@H](CCSC)NC(C)=O)C(=O)N[C@@H](Cc1ccccc1)C(=O)N[C@@H](Cc1ccc(O)cc1)C(=O)N1CCC[C@H]1C(=O)N[C@@H](CCCNC(=N)N)C(=O)N[C@@H](CCCCN)C(=O)N[C@@H](CC(C)C)C(=O)N[C@@H](CCCNC(=N)N)C(N)=O` [compound 156] (HELM PEPTIDE1{[ac].M.R.W.Q.[dA].M.G.Y.I.F.Y.P.R.K.L.R.[am]}$$$$V2.0) reads 94.7%; that for H-MRWQEMGYIF-OH [compound 50], 97.4%.

Consider `CC[C@H](C)[C@H](NC(=O)[C@H](Cc1ccc(O)cc1)NC(=O)CNC(=O)[C@H](CCC(=O)O)NC(=O)[C@H](CCC(=O)O)NC(=O)[C@H](CCC(N)=O)NC(=O)[C@H](Cc1c[nH]c2ccccc12)NC(=O)[C@H](CCCNC(=N)N)NC(=O)[C@@H](C)N)C(=O)N[C@@H](C)C(=O)N[C@@H](Cc1ccc(O)cc1)C(=O)N1CCC[C@H]1C(=O)N[C@@H](CCCNC(=N)N)C(=O)O` [compound 238] (HELM PEPTIDE1{[dA].R.W.Q.E.E.G.Y.I.A.Y.P.R}$$$$V2.0), for which the “Free Fatty Acid Levels in 3T3-L1 Adipocytes Expressed as a Percent of Isoproterenol Control: Percent of Control Value” came out at 52.9%. As for `CC[C@H](C)[C@H](NC(=O)[C@H](Cc1ccc(O)cc1)NC(=O)CNC(=O)[C@H](CCSC)NC(=O)[C@H](CCC(=O)O)NC(=O)[C@H](CCC(N)=O)NC(=O)[C@H](Cc1c[nH]c2ccccc12)NC(=O)[C@H](CCCNC(=N)N)NC(=O)[C@@H](C)NC(C)=O)C(=O)N[C@@H](Cc1ccccc1)C(=O)N[C@@H](Cc1ccc(O)cc1)C(=O)N1CCC[C@H]1C(=O)N[C@@H](CCCNC(=N)N)C(=O)N[C@@H](CCCCN)C(=O)N[C@@H](CC(C)C)C(=O)N[C@@H](CCCNC(=N)N)C(N)=O` [compound 152] (HELM PEPTIDE1{[ac].[dA].R.W.Q.E.M.G.Y.I.F.Y.P.R.K.L.R.[am]}$$$$V2.0), the figure is 81.9%; as for `CC[C@H](C)[C@H](NC(=O)[C@H](Cc1ccc(O)cc1)NC(=O)CNC(=O)[C@H](CCC(=O)O)NC(=O)[C@H](CCC(=O)O)NC(=O)[C@H](CCC(N)=O)NC(=O)[C@H](Cc1c[nH]c2ccccc12)NC(=O)[C@H](CCCNC(=N)N)NC(=O)[C@@H](C)N)C(=O)N[C@@H](C)C(=O)N[C@@H](Cc1ccc(O)cc1)C(=O)N1CCC[C@H]1C(=O)N[C@@H](CCCNC(=N)N)C(=O)N[C@@H](CCCCN)C(=O)N[C@@H](CC(C)C)C(=O)N[C@H](C)C(=O)O` [compound 237] (HELM PEPTIDE1{[dA].R.W.Q.E.E.G.Y.I.A.Y.P.R.K.L.[dA]}$$$$V2.0), 85.6%; as for Ac-MRWQEMGYIFYERKLR-NH2 [compound 193], 71.2%. As to `CC[C@H](C)[C@H](NC(=O)[C@H](Cc1ccc(O)cc1)NC(=O)CNC(=O)[C@H](CCSC)NC(=O)[C@H](CCC(=O)O)NC(=O)[C@H](CCC(N)=O)NC(=O)[C@H](Cc1c[nH]c2ccccc12)NC(=O)[C@H](CCCNC(=N)N)NC(=O)[C@H](CCSC)NC(C)=O)C(=O)N[C@@H](Cc1ccccc1)C(=O)N[C@@H](Cc1ccc(O)cc1)C(=O)N1CCC[C@H]1C(=O)N[C@@H](CCCNC(=N)N)C(=O)N[C@@H](CCCCN)C(=O)NC(CC)(CC)C(=O)N[C@@H](CCCNC(=N)N)C(=O)O` [compound 199] (HELM PEPTIDE1{[ac].M.R.W.Q.E.M.G.Y.I.F.Y.P.R.K.[CCC(CC)(N[*:1])C(=O)[*:2]].R}$$$$V2.0), the “Free Fatty Acid Levels in 3T3-L1 Adipocytes Expressed as a Percent of Isoproterenol Control: Percent of Control Value” worked out at 48.0%.

With `CC[C@H](C)[C@H](NC(=O)[C@H](Cc1ccc(O)cc1)NC(=O)CNC(=O)[C@@H](C)NC(=O)[C@H](CCC(=O)O)NC(=O)[C@H](CCC(N)=O)NC(=O)[C@H](Cc1c[nH]c2ccccc12)NC(=O)[C@H](CCCNC(=N)N)NC(=O)[C@H](CCSC)NC(C)=O)C(=O)N[C@@H](Cc1ccccc1)C(=O)N[C@@H](Cc1ccc(O)cc1)C(=O)N1CCC[C@H]1C(=O)N[C@@H](CCCNC(=N)N)C(=O)N[C@@H](CCCCN)C(=O)N[C@@H](CC(C)C)C(=O)N[C@@H](CCCNC(=N)N)C(N)=O` [compound 157] (HELM PEPTIDE1{[ac].M.R.W.Q.E.[dA].G.Y.I.F.Y.P.R.K.L.R.[am]}$$$$V2.0), the “Free Fatty Acid Levels in 3T3-L1 Adipocytes Expressed as a Percent of Isoproterenol Control: Percent of Control Value” is on record as 85.0%. With `CSCC[C@H](NC(=O)[C@H](CCC(=O)O)NC(=O)[C@H](CCC(N)=O)NC(=O)[C@H](Cc1c[nH]c2ccccc12)NC(=O)[C@H](CCCNC(=N)N)NC(=O)[C@@H](N)CCSC)C(=O)NCC(=O)N[C@@H](Cc1ccc(O)cc1)C(=O)N[C@H](C)C(=O)N[C@@H](Cc1ccccc1)C(=O)N[C@@H](Cc1ccc(O)cc1)C(=O)N1CCC[C@H]1C(=O)N[C@@H](CCCNC(=N)N)C(=O)N[C@@H](CCCCN)C(=O)N[C@@H](CC(C)C)C(=O)N[C@@H](CCCNC(=N)N)C(=O)O` [compound 144] (HELM PEPTIDE1{M.R.W.Q.E.M.G.Y.[dA].F.Y.P.R.K.L.R}$$$$V2.0), the “Free Fatty Acid Levels in 3T3-L1 Adipocytes Expressed as a Percent of Isoproterenol Control: Percent of Control Value” was 57.0%.

For the compound `CC[C@H](C)[C@H](NC(=O)[C@H](Cc1ccc(O)cc1)NC(=O)CNC(=O)[C@H](CCSC)NC(=O)[C@H](CCC(=O)O)NC(=O)[C@H](CCC(N)=O)NC(=O)[C@H](Cc1c[nH]c2ccccc12)NC(=O)[C@H](CCCNC(=N)N)NC(=O)[C@@H](N)CCSC)C(=O)N[C@@H](Cc1ccccc1)C(=O)N[C@@H](Cc1ccc(O)cc1)C(=O)N1CCC[C@H]1C(=O)N[C@H](C)C(=O)N[C@@H](CCCCN)C(=O)N[C@@H](CC(C)C)C(=O)N[C@@H](CCCNC(=N)N)C(=O)O` [compound 148] (HELM PEPTIDE1{M.R.W.Q.E.M.G.Y.I.F.Y.P.[dA].K.L.R}$$$$V2.0), the “Free Fatty Acid Levels in 3T3-L1 Adipocytes Expressed as a Percent of Isoproterenol Control: Percent of Control Value” was 25.0%. As for `CC[C@H](C)[C@H](NC(=O)[C@H](Cc1ccc(O)cc1)NC(=O)CNC(=O)[C@H](CCSC)NC(=O)[C@H](CCC(=O)O)NC(=O)[C@H](CCC(N)=O)NC(=O)[C@H](Cc1c[nH]c2ccccc12)NC(=O)[C@H](CCCNC(=N)N)NC(=O)[C@H](CCSC)NC(C)=O)C(=O)N[C@@H](Cc1ccccc1)C(=O)N[C@@H](Cc1ccc(O)cc1)C(=O)N1CCC[C@H]1C(=O)N[C@@H](CCCNC(=N)N)C(=O)N[C@@H](CCCCN)C(=O)N[C@H](C)C(=O)N[C@@H](CCCNC(=N)N)C(N)=O` [compound 166] (HELM PEPTIDE1{[ac].M.R.W.Q.E.M.G.Y.I.F.Y.P.R.K.[dA].R.[am]}$$$$V2.0), the figure is 78.0%. Consider `CC[C@H](C)[C@H](NC(=O)[C@H](Cc1ccc(O)cc1)NC(=O)CNC(=O)[C@H](C)NC(=O)[C@H](CCC(=O)O)NC(=O)[C@H](CCC(N)=O)NC(=O)[C@H](Cc1c[nH]c2ccccc12)NC(=O)[C@H](CCCNC(=N)N)NC(=O)[C@@H](C)N)C(=O)N[C@@H](Cc1ccccc1)C(=O)N[C@@H](CCC(=O)O)C(=O)N1CCC[C@H]1C(=O)N[C@@H](CCCNC(=N)N)C(=O)O` [compound 244] (HELM PEPTIDE1{[dA].R.W.Q.E.A.G.Y.I.F.E.P.R}$$$$V2.0), for which the “Free Fatty Acid Levels in 3T3-L1 Adipocytes Expressed as a Percent of Isoproterenol Control: Percent of Control Value” amounted to 90.3%. On to H-MRWQEMGYIFY-OH [compound 49], for which the “Free Fatty Acid Levels in 3T3-L1 Adipocytes Expressed as a Percent of Isoproterenol Control: Percent of Control Value” stood at 103.3%.

In the case of `CSCC[C@H](NC(C)=O)C(=O)N[C@@H](CCCNC(=N)N)C(=O)N[C@@H](Cc1c[nH]c2ccccc12)C(=O)N[C@@H](CCC(N)=O)C(=O)N[C@@H](CCC(=O)O)C(=O)N[C@@H](CCSC)C(=O)NCC(=O)N[C@@H](Cc1ccc(O)cc1)C(=O)N[C@H](C)C(=O)N[C@@H](Cc1ccccc1)C(=O)N[C@@H](Cc1ccc(O)cc1)C(=O)N1CCC[C@H]1C(=O)N[C@@H](CCCNC(=N)N)C(=O)N[C@@H](CCCCN)C(=O)N[C@@H](CC(C)C)C(=O)N[C@@H](CCCNC(=N)N)C(N)=O` [compound 160] (HELM PEPTIDE1{[ac].M.R.W.Q.E.M.G.Y.[dA].F.Y.P.R.K.L.R.[am]}$$$$V2.0), the “Free Fatty Acid Levels in 3T3-L1 Adipocytes Expressed as a Percent of Isoproterenol Control: Percent of Control Value” is on record as 87.1%. As for H-MKWQEMGYIFYPRKLR-OH [compound 122], the “Free Fatty Acid Levels in 3T3-L1 Adipocytes Expressed as a Percent of Isoproterenol Control: Percent of Control Value” is 52.1%. As for Ac-MRWQEMEYIFYPRKLR-NH2 [compound 188], the figure is 86.5%; as for `CC[C@H](C)[C@H](NC(=O)[C@H](Cc1ccc(O)cc1)NC(=O)CNC(=O)[C@H](C)NC(=O)[C@H](CCC(=O)O)NC(=O)[C@H](CCC(N)=O)NC(=O)[C@H](Cc1c[nH]c2ccccc12)NC(=O)[C@H](CCCNC(=N)N)NC(=O)[C@@H](C)N)C(=O)N[C@@H](Cc1ccccc1)C(=O)N[C@@H](CCC(=O)O)C(=O)N1CCC[C@H]1C(=O)N[C@@H](CCCNC(=N)N)C(=O)N[C@@H](CCCCN)C(=O)N[C@@H](CC(C)C)C(=O)N[C@@H](C)C(=O)O` [compound 242] (HELM PEPTIDE1{[dA].R.W.Q.E.A.G.Y.I.F.E.P.R.K.L.A}$$$$V2.0), 64.9%; as for Ac-LRWQEMGYIFYPRKR-NH2 [compound 116], 101.8%.

As for H-ERWQEAGYIFYPR-OH [compound 235], the “Free Fatty Acid Levels in 3T3-L1 Adipocytes Expressed as a Percent of Isoproterenol Control: Percent of Control Value” is given as 71.8%.
